The values that follow come from patent US20190085024A1, “Alpha-Ketoamide Inhibitors Of Cysteine Proteases” (Phelix Therapeutics, priority 2017, published 2019).

Each structure is given as a SMILES string. *1 amine or outer side, *2 acyl side, *3 side chain or, on linkers, in order; H or OH if unused. Where a SMILES comes first, the peptide text is derived from it. [ ]: non-standard residue; d: D form. The star is where a group is joined. 2Nal = N[CH](Cc1ccc2ccccc2c1)C(=O)O; X1 = CCC(C)C(N[*:1])C(=O)C(=O)[*:2]; Cbz = O=C(OCc1ccccc1)*

Assay [1] deals with EBOV WT (Ebola Wild Type). As to the kind of experiment: microbe, parasite or virus in culture. To be noted: Zaire ebolavirus, read-out: EBOV WT (μM) (Ebola Wild Type). The format is cell-based.
For assay [2], the target named is Cat S (Homo sapiens, UniProt P25774). As to the kind of experiment: Cat S inhibition. The class given is biochemical.
Cat S, sequence (P25774 115-331): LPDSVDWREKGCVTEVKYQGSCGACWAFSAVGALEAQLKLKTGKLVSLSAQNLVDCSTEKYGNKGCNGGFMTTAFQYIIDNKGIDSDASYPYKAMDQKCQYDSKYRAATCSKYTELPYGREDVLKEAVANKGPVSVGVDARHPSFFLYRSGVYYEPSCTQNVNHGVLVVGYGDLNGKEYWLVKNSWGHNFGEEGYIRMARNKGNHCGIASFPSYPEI
In assay [3] the target is Cathepsin B (Homo sapiens, UniProt P07858). Nature of the assay: Cathepsin B enzyme assay. To be noted: Cat B (μM), Ki by Morrison equation; pH 6.0, substrate Z-Phe-Arg-Amc.
For assay [4], the target named is T1, Cat K (Homo sapiens, UniProt P43235).
T1 sequence (P43235 115-329): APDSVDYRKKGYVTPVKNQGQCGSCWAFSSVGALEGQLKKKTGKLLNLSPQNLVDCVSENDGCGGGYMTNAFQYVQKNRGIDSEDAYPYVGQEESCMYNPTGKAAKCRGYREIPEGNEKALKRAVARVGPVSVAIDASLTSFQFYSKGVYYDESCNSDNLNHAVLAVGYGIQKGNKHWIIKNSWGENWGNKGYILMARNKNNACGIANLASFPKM
Nature of the assay: Cat K inhibition. The class given is biochemical.

The target of assay [5] is Cathepsin L (Homo sapiens, UniProt P07711). As to the kind of experiment: Cathepsin L enzyme assay. The format is biochemical. To be noted: Ki by Morrison equation; pH 5.5, substrate Z-Phe-Arg-Amc; read-out: Cat L. The source says:
Two wells contained DMSO only for controls.
Velocity was converted to μM/sec.

Assay [6] has as its target Calpain. Nature of the assay: Calpain enzyme assay. The format is biochemical. The following applies: Ki by Morrison equation; pH 7.5, 5 mM CaCl2.
In assay [7] the test system is MERS WT. Nature of the assay: microbe, parasite or virus in culture. The class given is cell-based. To be noted: Middle East respiratory syndrome-related coronavirus, read-out: MERS WT (μM).
Assay [8] relates to Collagen. Nature of the assay: Fibrosis-Sirius Red Collagen Assay. The class given is cell-based.

Cathepsin L, sequence (P07711 114-333, species assumed): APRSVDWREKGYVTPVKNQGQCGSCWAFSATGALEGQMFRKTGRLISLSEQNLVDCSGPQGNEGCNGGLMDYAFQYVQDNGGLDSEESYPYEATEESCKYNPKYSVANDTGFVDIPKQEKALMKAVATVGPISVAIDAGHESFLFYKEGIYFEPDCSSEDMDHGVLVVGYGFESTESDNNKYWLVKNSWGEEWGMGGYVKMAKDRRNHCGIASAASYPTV

As for `Cc1cccc(CC(=O)NC(Cc2ccccc2)C(=O)NC(C)C(=O)C(=O)NC(Cc2ccccc2)C(=O)NC(C)(C)C(N)=O)c1` (stereo not shown) [PHELIX225, N-(1-((1-amino-2-methyl-1-oxopropan-2-yl)amino)-1-oxo-3-phenylpropan-2-yl)-2-oxo-3-(3-phenyl-2-(2-(m-tolyl)acetamido)propanmido)butanamide], the values for the IC50 in assay [1] and in assay [7] were 6.17 µM and 84.2 µM, respectively. The Ki was 8.12 nM in assay [2]; 0.299 µM in assay [3]; 254 nM in assay [4]; 18.6 nM in assay [5]; over 10000 nM in assay [6].
As for `CC(NC(=O)C(Cc1ccccc1)NC(=O)Cc1cccc(F)c1)C(=O)C(=O)NC(Cc1ccccc1)C(=O)NC(C)(C)C(N)=O` (stereo not shown) [PHELIX227, N-(1-((1-amino-2-methyl-1-oxopropan-2-yl)amino)-1-oxo-3-phenylpropan-2-yl)-3-(2-(2-(3-fluorophenyl)acetamido)-3-phenylpropanmido)-2-oxobutanamide], the IC50 was 16.8 µM in assay [1] and over 10 µM in assay [7]. Besides, the Ki in assay [2] is 16.3 nM; in assay [3], 0.171 µM; in assay [4], 536 nM; in assay [5], 58.9 nM; in assay [6], over 10000 nM.
With `CC(C)CC(NC(=O)C(Cc1ccccc1)NC(=O)OCc1ccccc1)C(=O)NC(Cc1ccccc1)C(=O)C(=O)NC(CCCNC(=N)N)C(N)=O` (stereo not shown) [PHELIX254, benzyl (1-amino-10-benzyl-6-carbamoyl-1-imino-13-isobutyl-8,9,12,15-tetraoxo-17-phenyl-2,7,11,14-tetraazaheptadecan-16-yl)carbamate], the IC50 was 3400 nM in assay [8] and over 30 µM in assay [7]. The Ki in assay [3] came out at 0.0432 µM; in assay [5], 0.71 nM; in assay [6] it was 3.42 nM.
For `CCC(C)C(NC(=O)C(CC(C)C)NC(=O)C(Cc1ccccc1)NC(=O)OCc1ccccc1)C(=O)C(=O)NCC(=O)NC(Cc1ccc2ccccc2c1)C(N)=O` (stereo not shown) [PHELIX270, benzyl (1-amino-9-(sec-butyl)-12-isobutyl-2-(naphthalen-2-ylmethyl)-1,4,7,8,11,14-hexaoxo-16-phenyl-3,6,10,13-tetraazahexadecan-15-yl)carbamate] (Cbz-FL[X1]G[2Nal]-NH2; configuration not given here), in that order: 3100 nM, over 30 µM, over 10 µM, 1.82 nM and 0.53 nM.
In assay [8], `CCC(C)C(NC(=O)C(CC(C)C)NC(=O)Cc1ccccc1)C(=O)C(=O)NCC(=O)NC(Cc1ccc2ccccc2c1)C(N)=O` (stereo not shown) [PHELIX300, N-(2-((1-amino-3-(naphthalen-2-yl)-1-oxopropan-2-yl)amino)-2-oxoethyl)-4-methyl-3-(4-methyl-2-(2-phenylacetamido)pentanamido)-2-oxohexanamide] yielded an IC50 of 4500 nM. The Ki in assay [5] was determined as 0.02 nM; in assay [6] it was 0.81 nM.
`CCC(C)C(NC(=O)C(CC(C)C)NC(=O)OCc1ccccc1)C(=O)C(=O)NCC(=O)N(C)C(Cc1ccccc1)C(N)=O` (stereo not shown) [PHELIX319, benzyl (1-((1-((2-((1-amino-1-oxo-3-phenylpropan-2-yl)(methyl)amino)-2-oxoethyl)amino)-4-methyl-1,2-dioxohexan-3-yl)amino)-4-methyl-1-oxopentan-2-yl)carbamate] gave an IC50 in assay [8] of 11700 nM. Also, the values for the Ki in assay [3], in assay [5] and in assay [6] were 0.456 µM, 0.28 nM and 0.68 nM, respectively.
